ChEMBL document CHEMBL1201862, “PubChem BioAssay data set” (2004)
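Method: 48-hour compound exposure of cells in 96-well plates, five concentrations, linear interpolation of endpoints. The concentration for 50% growth inhibition is given as GI50.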 Activity calls are given as the source filed them. No stated cut-off is given here; in the data, active = GI50 up to about 1.1 µM and inactive = higher.

Experiments:
Assay in all cases: NCI anticancer screen, dose series, 48 h
[1] = tested on: SK-MEL-2
[2] = tested on: UO-31
[3] = tested on: Malme-3M
[4] = tested on: SF-539
[5] = tested on: NCI-H23
[6] = tested on: Hs-578T
[7] = tested on: SF-295
[8] = tested on: DU-145
[9] = tested on: SN12C
[10] = tested on: PC-3
[11] = tested on: HCT-116
[12] = tested on: U-251
[13] = tested on: OVCAR-4
[14] = tested on: SNB-19
[15] = tested on: EKVX
[16] = tested on: NCI/ADR-RES
[17] = tested on: NCI-H460
[18] = tested on: UACC-62
[19] = tested on: LOX IMVI
[20] = tested on: A498

Row | SMILES | GI50 [1] | GI50 [2] | GI50 [3] | GI50 [4] | GI50 [5] | GI50 [6] | GI50 [7] | GI50 [8] | GI50 [9] | GI50 [10] | GI50 [11] | GI50 [12] | GI50 [13] | GI50 [14] | GI50 [15] | GI50 [16] | GI50 [17] | GI50 [18] | GI50 [19] | GI50 [20]
1 | CC1(C)C(C#N)=[N+]([O-])C(C)(C)N1O | > 100 µM (inactive) | > 100 µM (inactive) | > 100 µM (inactive) | > 100 µM (inactive) | > 100 µM (inactive) | > 100 µM (inactive) | > 100 µM (inactive) | > 100 µM (inactive) | > 100 µM (inactive) | > 100 µM (inactive) | > 100 µM (inactive) | > 100 µM (inactive) | > 100 µM (inactive) | > 100 µM (inactive) | > 100 µM (inactive) | > 100 µM (inactive) | > 100 µM (inactive) | > 100 µM (inactive) | 77.3 µM (inactive) | –
2 | NC(=O)N/N=C(\Cc1cc(=O)oc2cc(O)ccc12)C(=O)Nc1ccccc1C(N)=O | > 100 µM (inactive) | > 100 µM (inactive) | – | > 100 µM (inactive) | > 100 µM (inactive) | > 100 µM (inactive) | > 100 µM (inactive) | > 100 µM (inactive) | > 100 µM (inactive) | > 100 µM (inactive) | > 100 µM (inactive) | > 100 µM (inactive) | > 100 µM (inactive) | > 100 µM (inactive) | > 100 µM (inactive) | > 100 µM (inactive) | > 100 µM (inactive) | > 100 µM (inactive) | > 100 µM (inactive) | –
3 | CC1C(=NO)C(C)C(c2ccccc2)N(N=O)C1c1ccccc1 (stereo not given) | 18.7 µM (inactive) | 13.3 µM (inactive) | 17.4 µM (inactive) | 13.1 µM (inactive) | 24.8 µM (inactive) | 16.4 µM (inactive) | 13.8 µM (inactive) | 30.8 µM (inactive) | 15.5 µM (inactive) | 25.4 µM (inactive) | 17.5 µM (inactive) | 17.7 µM (inactive) | 19.6 µM (inactive) | 18.3 µM (inactive) | 22.9 µM (inactive) | 17.5 µM (inactive) | 16 µM (inactive) | 13.5 µM (inactive) | 15.9 µM (inactive) | –
4 | O=C(O)CCc1ccc2c(c1)CC1(Cc3ccccc3C1)C2 | > 100 µM (inactive) | > 100 µM (inactive) | > 100 µM (inactive) | > 100 µM (inactive) | > 100 µM (inactive) | > 100 µM (inactive) | > 100 µM (inactive) | – | > 100 µM (inactive) | > 100 µM (inactive) | > 100 µM (inactive) | > 100 µM (inactive) | 49.3 µM (inactive) | – | > 100 µM (inactive) | > 100 µM (inactive) | – | > 100 µM (inactive) | > 100 µM (inactive) | > 100 µM (inactive)
5 | COC(CN(C)C(=O)C(C)NC(=O)c1ccccc1)OC (stereo not given) | > 100 µM (inactive) | – | > 100 µM (inactive) | > 100 µM (inactive) | > 100 µM (inactive) | > 100 µM (inactive) | > 100 µM (inactive) | > 100 µM (inactive) | > 100 µM (inactive) | > 100 µM (inactive) | > 100 µM (inactive) | > 100 µM (inactive) | > 100 µM (inactive) | – | > 100 µM (inactive) | > 100 µM (inactive) | > 100 µM (inactive) | > 100 µM (inactive) | – | –
6 | c1ccc([P+](CCNCCNCC[P+](c2ccccc2)(c2ccccc2)c2ccccc2)(c2ccccc2)c2ccccc2)cc1 | > 100 µM (inactive) | > 100 µM (inactive) | – | > 100 µM (inactive) | > 100 µM (inactive) | > 100 µM (inactive) | > 100 µM (inactive) | > 100 µM (inactive) | > 100 µM (inactive) | – | > 100 µM (inactive) | > 100 µM (inactive) | > 100 µM (inactive) | > 100 µM (inactive) | > 100 µM (inactive) | > 100 µM (inactive) | > 100 µM (inactive) | > 100 µM (inactive) | – | > 100 µM (inactive)
7 | C1=C2SSC3=CC=C(SSc4ccc(s4)SSC4=CC=C(SSC(=C1)S2)S4)S3 | > 100 µM (inactive) | > 100 µM (inactive) | > 100 µM (inactive) | – | > 100 µM (inactive) | – | > 100 µM (inactive) | > 100 µM (inactive) | > 100 µM (inactive) | > 100 µM (inactive) | > 100 µM (inactive) | > 100 µM (inactive) | > 100 µM (inactive) | > 100 µM (inactive) | > 100 µM (inactive) | > 100 µM (inactive) | > 100 µM (inactive) | – | > 100 µM (inactive) | > 100 µM (inactive)
8 | COc1ccc(N[C@H](C[S+]([O-])c2ccc(C)cc2)C(F)(F)F)cc1 (stereo not given in full) | > 100 µM (inactive) | > 100 µM (inactive) | > 100 µM (inactive) | > 100 µM (inactive) | > 100 µM (inactive) | – | > 100 µM (inactive) | > 100 µM (inactive) | > 100 µM (inactive) | > 100 µM (inactive) | > 100 µM (inactive) | > 100 µM (inactive) | > 100 µM (inactive) | > 100 µM (inactive) | > 100 µM (inactive) | > 100 µM (inactive) | > 100 µM (inactive) | > 100 µM (inactive) | > 100 µM (inactive) | –
9 | Cc1cc(/N=N/c2ccccc2C)ccc1N | 15.6 µM (inactive) | 3.02 µM (inactive) | 19 µM (inactive) | 2.54 µM (inactive) | 3.99 µM (inactive) | 15.7 µM (inactive) | 11.5 µM (inactive) | – | 12.4 µM (inactive) | 11.1 µM (inactive) | 15.5 µM (inactive) | 14.3 µM (inactive) | 19.4 µM (inactive) | 31 µM (inactive) | 15.5 µM (inactive) | 11.1 µM (inactive) | 3.19 µM (inactive) | 12.5 µM (inactive) | 11.4 µM (inactive) | 24.3 µM (inactive)
10 | O=c1c(F)cn2c(=O)n1CCCCCCCn1c(=O)c(F)cn(c1=O)CCCCCCC2 | > 100 µM (inactive) | > 100 µM (inactive) | 35.7 µM (inactive) | 33.1 µM (inactive) | > 100 µM (inactive) | – | > 100 µM (inactive) | 1.59 µM (inactive) | > 100 µM (inactive) | > 100 µM (inactive) | 73.5 µM (inactive) | > 100 µM (inactive) | 30.1 µM (inactive) | > 100 µM (inactive) | > 100 µM (inactive) | 69 µM (inactive) | > 100 µM (inactive) | 60.5 µM (inactive) | > 100 µM (inactive) | 32 µM (inactive)
11 | O=C(c1ccc(Cl)cc1)C1OC12C(=O)Nc1ccccc12 (stereo not given) | 7.6 µM (inactive) | 15.8 µM (inactive) | 4.55 µM (inactive) | 16 µM (inactive) | 15.5 µM (inactive) | 16.5 µM (inactive) | 18 µM (inactive) | 19.1 µM (inactive) | 6.01 µM (inactive) | 25.9 µM (inactive) | 3.61 µM (inactive) | 17.3 µM (inactive) | 19.1 µM (inactive) | 40.9 µM (inactive) | 18.1 µM (inactive) | – | 18.5 µM (inactive) | 14.8 µM (inactive) | 1.45 µM (inactive) | 19.7 µM (inactive)
12 | COC1(OC)C(/C(N)=C\O)=NC(C)(C)N1O | > 100 µM (inactive) | > 100 µM (inactive) | > 100 µM (inactive) | > 100 µM (inactive) | > 100 µM (inactive) | – | > 100 µM (inactive) | > 100 µM (inactive) | > 100 µM (inactive) | > 100 µM (inactive) | > 100 µM (inactive) | > 100 µM (inactive) | > 100 µM (inactive) | > 100 µM (inactive) | > 100 µM (inactive) | > 100 µM (inactive) | > 100 µM (inactive) | > 100 µM (inactive) | > 100 µM (inactive) | > 100 µM (inactive)
13 | CCOC(=O)[C@@H]1ON2O[C@H](OC3CCCC3(c3ccccc3)c3ccccc3)C[C@H]3OC(=O)[C@@H]1C32 (stereo not given in full) | – | 37.6 µM (inactive) | – | 65 µM (inactive) | 27 µM (inactive) | 49.4 µM (inactive) | > 100 µM (inactive) | 25.5 µM (inactive) | 97.5 µM (inactive) | – | 73.3 µM (inactive) | 52.4 µM (inactive) | – | – | > 100 µM (inactive) | 31.8 µM (inactive) | 34 µM (inactive) | 27 µM (inactive) | 27.2 µM (inactive) | 35.2 µM (inactive)
14 | COc1cc(C=O)c(-c2cc3c(cc2C2(C)OCCS2)OCO3)c(OC)c1OC (stereo not given) | 11.4 µM (inactive) | 14.1 µM (inactive) | 12 µM (inactive) | 5.85 µM (inactive) | 21.9 µM (inactive) | – | 13.3 µM (inactive) | – | 13.5 µM (inactive) | – | 8 µM (inactive) | 15.5 µM (inactive) | 17.9 µM (inactive) | 30.2 µM (inactive) | 19.7 µM (inactive) | – | 18.9 µM (inactive) | 12.6 µM (inactive) | 9.12 µM (inactive) | 7.85 µM (inactive)
15 | C[C@H](N)C(=O)Nc1ccc(-c2nc3ccccc3s2)cc1Cl | 15.7 µM (inactive) | 10.7 µM (inactive) | 22.1 µM (inactive) | – | 16.5 µM (inactive) | 20.1 µM (inactive) | 16.6 µM (inactive) | 16.6 µM (inactive) | 15.9 µM (inactive) | 13.8 µM (inactive) | 11.6 µM (inactive) | 14.6 µM (inactive) | – | 16.3 µM (inactive) | 11.9 µM (inactive) | 30.8 µM (inactive) | 0.916 µM (active) | 16.4 µM (inactive) | 7.82 µM (inactive) | –
